{
  "source": "ChEMBL document CHEMBL1137889",
  "about": "“Synthesis and antienteroviral activity of a series of novel, oxime ether-containing pyridyl imidazolidinones” (Bioorg Med Chem Lett, 2004)",
  "key": {"[1]": {"test_system": "Rhabdomyosarcoma cell", "test": "Concentration required for 50% cytotoxicity against human rhabdomyosarcoma cell lines", "assay_type": "functional"}, "[2]": {"test_system": "Coxsackievirus", "test": "inhibition concentration required against coxsackievirus B4 was determined by plaque reduction assay", "assay_type": "functional, organism-based"}, "[3]": {"test_system": "Coxsackievirus", "test": "inhibition concentration required against coxsackievirus B5 was determined by plaque reduction assay", "assay_type": "functional, organism-based"}, "[4]": {"test_system": "Coxsackievirus", "test": "inhibition concentration required against coxsackievirus B6 was determined by plaque reduction assay", "assay_type": "functional, organism-based"}, "[5]": {"test_system": "Enterovirus A71", "test": "inhibition concentration required against human enterovirus 71 (2086) genotype C was determined by plaque reduction assay", "assay_type": "functional, organism-based", "conditions": "Enterovirus A"}, "[6]": {"test_system": "Enterovirus A71", "test": "inhibition concentration required against human enterovirus 71 (2231) genotype C was determined by plaque reduction assay", "assay_type": "functional, organism-based", "conditions": "Enterovirus A"}, "[7]": {"test_system": "Enterovirus A71", "test": "inhibition concentration required against human enterovirus 71 (BrCr) genotype A was determined by plaque reduction assay", "assay_type": "functional, organism-based"}, "[8]": {"test_system": "Enterovirus A71", "test": "inhibition concentration required against human enterovirus 71 (1743) genotype B was determined by plaque reduction assay", "assay_type": "functional, organism-based", "conditions": "Enterovirus A"}, "[9]": {"test_system": "Enterovirus A71", "test": "inhibition concentration required against human enterovirus 71 strain 4643 was determined by plaque reduction assay", "assay_type": "functional, organism-based", "conditions": "Enterovirus A"}, "[10]": {"test_system": "Echovirus", "test": "inhibition concentration required against echovirus 29 was determined by plaque reduction assay", "assay_type": "functional, organism-based"}, "[11]": {"test_system": "Coxsackievirus", "test": "inhibition concentration required against coxsackievirus A10 was determined by plaque reduction assay", "assay_type": "functional, organism-based"}, "[12]": {"test_system": "Coxsackievirus", "test": "inhibition concentration required against coxsackievirus A16 was determined by plaque reduction assay", "assay_type": "functional, organism-based"}, "[13]": {"test_system": "Coxsackievirus", "test": "inhibition concentration required against coxsackievirus A24 was determined by plaque reduction assay", "assay_type": "functional, organism-based"}, "[14]": {"test_system": "Echovirus", "test": "inhibition concentration required against echovirus 9 was determined by plaque reduction assay", "assay_type": "functional, organism-based"}, "[15]": {"test_system": "Coxsackievirus", "test": "inhibition concentration required against coxsackievirus A9 was determined by plaque reduction assay", "assay_type": "functional, organism-based"}, "[16]": {"test_system": "Coxsackievirus", "test": "inhibition concentration required against coxsackievirus B1 was determined by plaque reduction assay", "assay_type": "functional, organism-based"}, "[17]": {"test_system": "Coxsackievirus", "test": "inhibition concentration required against coxsackievirus B3 was determined by plaque reduction assay", "assay_type": "functional, organism-based"}, "[18]": {"test_system": "Coxsackievirus", "test": "inhibition concentration required against coxsackievirus B2 was determined by plaque reduction assay", "assay_type": "functional, organism-based"}, "[19]": {"test_system": "Enterovirus D68", "test": "inhibition concentration required against human enterovirus 68 was determined by plaque reduction assay", "conditions": "Enterovirus D"}},
  "data": [
    {"smiles": "O=C1N(CCCCCOc2ccc(-c3ccc(Cl)cc3)cc2)CCN1c1ccncc1", "values": [
      {"measurement": "CC50", "setting": "[1]", "value": "> 12500", "unit": "nM"},
      {"measurement": "IC50", "setting": "[2]", "value": 3140, "unit": "nM"},
      {"measurement": "IC50", "setting": "[3]", "value": 4180, "unit": "nM"},
      {"measurement": "IC50", "setting": "[4]", "value": "> 25000", "unit": "nM"},
      {"measurement": "IC50", "setting": "[5]", "value": 70, "unit": "nM"},
      {"measurement": "IC50", "setting": "[6]", "value": 80, "unit": "nM"},
      {"measurement": "IC50", "setting": "[7]", "value": 50, "unit": "nM"},
      {"measurement": "IC50", "setting": "[8]", "value": 90, "unit": "nM"},
      {"measurement": "IC50", "setting": "[9]", "value": 30, "unit": "nM"},
      {"measurement": "IC50", "setting": "[10]", "value": 30, "unit": "nM"},
      {"measurement": "IC50", "setting": "[11]", "value": 8610, "unit": "nM"},
      {"measurement": "IC50", "setting": "[12]", "value": "> 25000", "unit": "nM"},
      {"measurement": "IC50", "setting": "[13]", "value": 140, "unit": "nM"},
      {"measurement": "IC50", "setting": "[14]", "value": 300, "unit": "nM"},
      {"measurement": "IC50", "setting": "[15]", "value": 40, "unit": "nM"},
      {"measurement": "IC50", "setting": "[16]", "value": "> 25000", "unit": "nM"},
      {"measurement": "IC50", "setting": "[17]", "value": "> 25000", "unit": "nM"},
      {"measurement": "IC50", "setting": "[18]", "value": "> 25000", "unit": "nM"},
      {"measurement": "IC50", "setting": "[19]", "value": "> 25000", "unit": "nM"}
    ]}
  ]
}
